Test system: milk-induced eosinophilia and leukocytosis
Experiment: Milk-induced eosinophilia and leukocytosis in mice
Assay type: in vivo, Swiss albino mice
Settings: for Eosinophil (mean ± SD), post-treatment / Total leucocyte count (mean ± SD), post-treatment: 24 h after dosing, p.o. 1 h before boiled and cooled milk 4 ml/kg s.c., polyherbal extract 307 mg/kg, levocetirizine 0.9 mg/kg, fexofenadine 21 mg/kg; for Eosinophil (mean ± SD), pre-treatment / Total leucocyte count (mean ± SD), pre-treatment: before treatment, 6 mice/group
Description: The composition of the present invention was assessed using milk-induced cosinophilia and leukocytosis animal model to evaluate the anti-inflammatory activity.
Injection of milk into mice induces allergy response which in turn causes leucocytosis. Leukocytosis is the condition of having a high number of leukocytes in the blood. Leukocytes are white blood cells. Leukocytosis may be a temporary response to an allergy, infection or an injury as the body is healing naturally, or it can be a sign of disease.
Study was conducted to check the effect of extracts on milk-induced eosinophilia and leukocytosis in mice, by determining the count of eosinophils and leukocytes. For this model, 54 Swiss albino mice weighing in the range of 20-25 gm were used and divided in nine groups (6 mice/group). The eosinophils and leukocyte count was checked before and after treatment i.e. 24 hours after dosing with polyherbal formulation and standard drugs.
All the animals were maintained in the animal house under standard conditions: temperature (24±1° C.), relative humidity (45-55%), light (12 h) and dark (12 h) cycle, and were allowed free access to food and water ad libitum. After one-week acclimatization in the animal house, the animals were used for the experiments.
Polyherbal extract containing Nigella sativa 88 mg/kg, Tinospora cordifolia 158 mg/kg, Petasites hybridus 26 mg/kg and Perilla frutescens 35 mg/kg was suspended in carboxy methyl cellulose. The suspension thus contained 307 mg/kg of the extract.
Similarly, standard drugs levocetirizine and fexofenadine were prepared as per requirement
The treatment of polyherbal extract and standard drug formulation were given orally 1 hour prior to injection of boiled and cooled milk. After 24 hours, blood samples were collected from retro orbital plexus, under ketamine xylazine anesthesia. Total eosinophil and differential leukocyte count per cu·mm was anlysed using hematology analyzer before and after treatment.

Row | SMILES | Eosinophil (mean ± SD), post-treatment | Total leucocyte count (mean ± SD), post-treatment | Eosinophil (mean ± SD), pre-treatment | Total leucocyte count (mean ± SD), pre-treatment
1 | CC(C)(C(=O)O)c1ccc(C(O)CCCN2CCC(C(O)(c3ccccc3)c3ccccc3)CC2)cc1 (centres unmarked) [Fexofenadine] | 0.183 ± 0.075 10^3/μL | 6.917 ± 0.436 10^3/μL | 0.17 ± 0.08 10^3/μL | 7.87 ± 0.72 10^3/μL
2 | O=C(O)COCCN1CCN([C@H](c2ccccc2)c2ccc(Cl)cc2)CC1 [Levocetirizine] | 0.167 ± 0.082 10^3/μL | 6.950 ± 1.089 10^3/μL | 0.18 ± 0.08 10^3/μL | 6.95 ± 1.57 10^3/μL

— patent US20260021154A1, “HERBAL ANTI-INFAMMATORY COMPOSITION” (CIRA HERBALS LLP, priority 2022, published 2026)
